Assay results: PubChem BioAssay (NCI)
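Dose response: 5 concentrations. Exposure: 48 h. Format: 96-well plates. Endpoint: linear interpolation; highest concentration if not reached. At the GI50, growth is halved. TGI: concentration producing complete growth inhibition.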

Columns and labels:
Assay in all cases: DTP human tumour cell line panel, 48 h
[1] = tested on: 786-0 renal
[2] = tested on: A549 NSCLC
[3] = tested on: ACHN renal
[4] = tested on: BT-549 breast
[5] = tested on: CAKI-1 renal
[6] = tested on: CCRF-CEM leukemia
[7] = tested on: EKVX NSCLC
[8] = tested on: HCC-2998 colon
[9] = tested on: HCT-15 colon
[10] = tested on: HL-60(TB) leukemia
[11] = tested on: HOP-92 NSCLC
[12] = tested on: HS 578T breast
[13] = tested on: HT29 colon
[14] = tested on: IGROV1 ovarian
[15] = tested on: K-562 leukemia
[16] = tested on: KM12 colon
[17] = tested on: LOX IMVI melanoma
[18] = tested on: M14 melanoma
[19] = tested on: MCF7 breast
[20] = tested on: MOLT-4 leukemia
[21] = tested on: NCI-H23 lung
[22] = tested on: NCI-H460 lung
[23] = tested on: NCI/ADR-RES ovarian
[24] = tested on: OVCAR-3 ovarian
[25] = tested on: OVCAR-4 ovarian
[26] = tested on: OVCAR-5 ovarian
[27] = tested on: OVCAR-8 ovarian
[28] = tested on: RPMI-8226 leukemia
[29] = tested on: RXF 393 renal
[30] = tested on: SF-268 CNS
[31] = tested on: SF-539 CNS
[32] = tested on: SK-MEL-28 melanoma
[33] = tested on: SK-MEL-5 melanoma
[34] = tested on: SK-OV-3 ovarian
[35] = tested on: SN12C renal
[36] = tested on: SNB-19 CNS
[37] = tested on: SNB-75 CNS
[38] = tested on: SR leukemia
[39] = tested on: SW-620 colon
[40] = tested on: TK-10 renal
[41] = tested on: U251 CNS
[42] = tested on: UO-31 renal
[43] = tested on: HCT-116 colon
[44] = tested on: HOP-62 NSCLC
[45] = tested on: MALME-3M melanoma
[46] = tested on: MDA-MB-231 breast
[47] = tested on: MDA-MB-435
[48] = tested on: NCI-H226 lung
[49] = tested on: PC-3 prostate
[50] = tested on: SF-295 CNS
[51] = tested on: SK-MEL-2 melanoma
[52] = tested on: UACC-257 melanoma
[53] = tested on: UACC-62 melanoma

For `COc1cc(/C=C2\CCc3ccccc3C2=O)ccc1O`, the TGI [1] was 27.3 µM, the TGI [2] was 53.2 µM and the TGI [3] was 58.1 µM. It also gave a TGI [4] of 37.7 µM, a TGI [5] of over 100 µM and a TGI [6] of over 100 µM. For the same compound, the TGI [7] was 59 µM, the TGI [8] was 33.7 µM and the TGI [9] was 75.7 µM. The TGI [10] was 30.1 µM, the TGI [11] was 45.2 µM and the TGI [12] was over 100 µM. It also gave a TGI [13] of 32.7 µM, a TGI [14] of over 100 µM and a TGI [15] of 79.7 µM. The TGI [16] was 30.8 µM, the TGI [17] was 32.8 µM and the TGI [18] was 33.5 µM. It also gave a TGI [19] of 23.2 µM, a TGI [20] of 69.1 µM and a TGI [21] of 52.3 µM. The TGI [22] was 34.4 µM, the TGI [23] was 78.8 µM and the TGI [24] was 36.1 µM. For the same compound, the TGI [25] was 44.8 µM, the TGI [26] was 27.2 µM and the TGI [27] was 37.1 µM. It also gave a TGI [28] of 50.2 µM, a TGI [29] of 25 µM and a TGI [30] of 74.1 µM. The TGI [31] was 30.4 µM, the TGI [32] was 38.8 µM and the TGI [33] was 35.3 µM. For the same compound, the TGI [34] was 91.5 µM, the TGI [35] was 49.7 µM and the TGI [36] was 30.2 µM. The TGI [37] was 79.1 µM, the TGI [38] was 48 µM and the TGI [39] was 33.9 µM. The TGI [40] was 37.8 µM, the TGI [41] was 31.7 µM and the TGI [42] was 27.4 µM.

Work on `c1ccc(CSCCNCCN(CCNCCSCc2ccccc2)CCNCCSCc2ccccc2)cc1` yielded a GI50 [1] of 1.53 µM, a TGI [1] of 2.94 µM and a GI50 [4] of 1.8 µM. It also gave a TGI [4] of 3.22 µM, a GI50 [5] of 3.35 µM and a TGI [5] of 14.3 µM. For the same compound, the GI50 [6] was 1.54 µM, the TGI [6] was 3.06 µM and the GI50 [43] was 0.183 µM. For the same compound, the TGI [43] was 0.34 µM, the GI50 [44] was 1.49 µM and the TGI [44] was 2.83 µM. The GI50 [16] was 1.1 µM, the TGI [16] was 2.41 µM and the GI50 [18] was 1.31 µM. For the same compound, the TGI [18] was 2.65 µM, the GI50 [45] was 1.84 µM and the TGI [45] was 3.41 µM. For the same compound, the GI50 [19] was 0.363 µM, the TGI [19] was 0.803 µM and the GI50 [46] was 1.56 µM. For the same compound, the TGI [46] was 2.94 µM, the GI50 [47] was 5.37 µM and the TGI [47] was 18.9 µM. The GI50 [48] was 1.78 µM, the TGI [48] was 3.28 µM and the GI50 [22] was 1.37 µM. The TGI [22] was 2.71 µM, the GI50 [24] was 4.23 µM and the TGI [24] was 18.3 µM. The GI50 [26] was 1.76 µM, the TGI [26] was 3.19 µM and the GI50 [27] was 1.57 µM. It also gave a TGI [27] of 3.02 µM, a GI50 [49] of 1.66 µM and a TGI [49] of 3.21 µM. For the same compound, the GI50 [28] was 0.337 µM, the TGI [28] was 1.03 µM and the GI50 [30] was 1.53 µM. The TGI [30] was 2.96 µM, the GI50 [50] was 4.17 µM and the TGI [50] was 20.5 µM. It also gave a GI50 [31] of 2.14 µM, a TGI [31] of 3.58 µM and a GI50 [51] of 1.6 µM. The TGI [51] was 3.11 µM, the GI50 [33] was 1.72 µM and the TGI [33] was 3.12 µM. The GI50 [34] was 1.94 µM, the TGI [34] was 3.43 µM and the GI50 [35] was 1.44 µM. The TGI [35] was 2.77 µM, the GI50 [39] was 1.78 µM and the TGI [39] was 3.21 µM. It also gave a GI50 [40] of 1.59 µM, a TGI [40] of 2.94 µM and a GI50 [41] of 1.52 µM. For the same compound, the TGI [41] was 2.85 µM, the GI50 [52] was 1.77 µM and the TGI [52] was 3.31 µM. The GI50 [53] was 1.77 µM, the TGI [53] was 3.16 µM and the GI50 [42] was 1.78 µM. The TGI [42] was 3.23 µM.

In the case of `CC(=O)O[C@H]1CC[C@]2(C)[C@H]3CC=C4[C@@H]5CC(C)(C)CC[C@]5(C(=O)NCCNCCNCCN)CC[C@@]4(C)[C@]3(C)CC[C@H]2C1(C)C`, the GI50 [3] is reported as 1.75 µM, the TGI [3] is reported as 3.14 µM and the GI50 [46] is reported as 1.53 µM. The TGI [46] was 3.04 µM, the GI50 [47] was 1.67 µM and the TGI [47] was 3.1 µM. It also gave a GI50 [48] of 2.18 µM, a TGI [48] of 4.99 µM and a GI50 [21] of 1.8 µM. The TGI [21] was 3.57 µM, the GI50 [24] was 1.76 µM and the TGI [24] was 3.24 µM. For the same compound, the GI50 [26] was 1.67 µM, the TGI [26] was 3.13 µM and the GI50 [31] was 1.69 µM. For the same compound, the TGI [31] was 3.17 µM, the GI50 [32] was 1.74 µM and the TGI [32] was 3.21 µM. It also gave a GI50 [35] of 1.78 µM, a TGI [35] of 3.37 µM and a GI50 [53] of 1.74 µM. The TGI [53] was 3.18 µM.
